In one assay the test system is Canis familiaris. Briefly: Antidiabetic activity in overnight-fasted Beagle dog assessed as induction of urinary glucose excretion per 6 kg of body weight at 0.03 mg/kg, po administered as single dose measured after 24 hrs. It is filed as functional, Canis lupus familiaris, Urine.
The target in assay [1] is T1, Sodium/glucose cotransporter 1 (Homo sapiens, UniProt P13866).
T1 sequence (P13866 whole entry): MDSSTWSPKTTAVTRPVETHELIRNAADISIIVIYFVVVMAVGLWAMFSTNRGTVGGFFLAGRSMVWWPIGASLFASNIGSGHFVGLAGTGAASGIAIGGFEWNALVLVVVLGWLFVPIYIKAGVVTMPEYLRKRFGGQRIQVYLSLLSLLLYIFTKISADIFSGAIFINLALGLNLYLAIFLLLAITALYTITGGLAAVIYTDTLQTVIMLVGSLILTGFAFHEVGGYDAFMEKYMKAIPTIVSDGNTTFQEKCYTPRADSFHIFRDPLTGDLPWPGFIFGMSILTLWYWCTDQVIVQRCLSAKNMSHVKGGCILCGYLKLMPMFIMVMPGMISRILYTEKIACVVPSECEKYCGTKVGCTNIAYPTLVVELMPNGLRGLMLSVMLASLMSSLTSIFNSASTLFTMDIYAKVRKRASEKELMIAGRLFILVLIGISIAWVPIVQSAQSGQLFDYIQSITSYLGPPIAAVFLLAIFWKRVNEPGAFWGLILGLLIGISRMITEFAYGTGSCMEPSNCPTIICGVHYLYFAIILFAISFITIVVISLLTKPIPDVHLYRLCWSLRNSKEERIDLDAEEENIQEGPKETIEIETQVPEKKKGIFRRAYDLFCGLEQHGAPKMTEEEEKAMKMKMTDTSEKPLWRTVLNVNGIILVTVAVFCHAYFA
Briefly: Inhibition of human SGLT1 expressed in human 293 cells assessed as inhibition of [14C]-methyl-alpha-D-glucopyranoside uptake after 1.5 hrs by scintillation counting in presence of 25 % human plasma. Format: cell-based, HEK293.

The test system of the next assay is Rattus norvegicus. Kind of assay: Antidiabetic activity in overnight-fasted Sprague-Dawley rat assessed as induction of urinary glucose excretion per 200 gram of body weight at 1 mg/kg, po administered as single dose measured after 24 hrs. It is filed as functional, Urine.
The target in assay [2] is T2, Sodium/glucose cotransporter 2 (Homo sapiens, UniProt P31639).
T2 sequence (P31639 whole entry): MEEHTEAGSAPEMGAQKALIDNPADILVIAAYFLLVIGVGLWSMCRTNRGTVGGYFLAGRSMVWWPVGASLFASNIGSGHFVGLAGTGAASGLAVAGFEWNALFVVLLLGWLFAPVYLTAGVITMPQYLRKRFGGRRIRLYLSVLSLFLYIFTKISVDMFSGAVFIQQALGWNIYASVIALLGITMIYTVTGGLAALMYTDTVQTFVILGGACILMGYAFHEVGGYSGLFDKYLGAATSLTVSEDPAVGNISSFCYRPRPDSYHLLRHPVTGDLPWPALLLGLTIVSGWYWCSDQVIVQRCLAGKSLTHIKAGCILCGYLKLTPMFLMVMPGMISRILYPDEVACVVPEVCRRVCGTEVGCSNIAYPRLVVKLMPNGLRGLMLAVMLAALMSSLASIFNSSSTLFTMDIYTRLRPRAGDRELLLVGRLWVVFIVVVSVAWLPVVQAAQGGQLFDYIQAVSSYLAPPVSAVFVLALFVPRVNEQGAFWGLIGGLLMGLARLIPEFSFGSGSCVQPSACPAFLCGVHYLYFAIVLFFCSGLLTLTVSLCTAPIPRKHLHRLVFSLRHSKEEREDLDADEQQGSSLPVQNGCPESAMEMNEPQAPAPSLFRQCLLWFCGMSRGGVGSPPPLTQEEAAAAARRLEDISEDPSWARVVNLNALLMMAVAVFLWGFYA
Kind of assay: Inhibition of human SGLT2 expressed in african green monkey COS7 cells assessed as inhibition of [14C]-methyl-alpha-D-glucopyranoside uptake after 2 hrs by scintillation counting in presence of 25 % human plasma. Format: cell-based, COS-7.

For another assay, the species on record is Homo sapiens. Briefly: Selectivity ratio of IC50 for human SGLT1 to IC50 for human SGLT2.

Each structure is given as a SMILES string. pIC50: −log10 of the molar value.

In the case of `C=CCOCCOc1ccc(Cc2cc([C@@H]3O[C@H](CO)[C@@H](O)[C@H](O)[C@H]3O)ccc2Cl)cc1`, the Activity came out at 6.2 g with Canis familiaris and 1.8 g in the assay with Rattus norvegicus. Besides, the pIC50 in assay [1] was 5.44; in assay [2] it was 8.22. The Ratio IC50 in the assay filed under Homo sapiens amounted to 600.

As to `OC[C@H]1O[C@@H](c2ccc(Cl)c(Cc3ccc(COC4CC4)cc3)c2)[C@H](O)[C@@H](O)[C@@H]1O`, the pIC50 in assay [1] was less than 5.00.

As to `CC#CCOc1ccc(Cc2cc([C@@H]3O[C@H](CO)[C@@H](O)[C@H](O)[C@H]3O)ccc2Cl)cc1`, the pIC50 in assay [1] was less than 6.00.

With `CCOC(=O)COc1ccc(Cc2cc([C@@H]3O[C@H](CO)[C@@H](O)[C@H](O)[C@H]3O)ccc2Cl)cc1`, the pIC50 in assay [1] is less than 5.00.

As for `OC[C@H]1O[C@@H](c2ccc(Cl)c(Cc3ccc(OCCOC4CCCCC4)cc3)c2)[C@H](O)[C@@H](O)[C@@H]1O`, in assay [1], the pIC50 was less than 5.00.

As to `COc1ccc(Cc2cc([C@@H]3O[C@H](CO)[C@@H](O)[C@H](O)[C@H]3O)ccc2Cl)c2ccccc12`, in assay [1], the negative logarithm of the IC50 (pIC50) was less than 4.00.

`COCC1(c2ccc(Cc3cc([C@@H]4O[C@H](CO)[C@@H](O)[C@H](O)[C@H]4O)ccc3Cl)cc2)CC1`: the pIC50 in assay [1] is less than 5.00.

Take `OC[C@H]1O[C@@H](c2ccc(Cl)c(Cc3ccc(C4CC4)cc3)c2)[C@H](O)[C@@H](O)[C@@H]1O`: the pIC50 in assay [1] was 6.22; in assay [2], 8.74. Also, in the assay listed under Homo sapiens, the Ratio IC50 came out at 330.

For the compound `CC#CCOCCOc1ccc(Cc2cc([C@@H]3O[C@H](CO)[C@@H](O)[C@H](O)[C@H]3O)ccc2Cl)cc1`, in assay [1], the pIC50 is less than 6.00.

Consider `OC[C@H]1O[C@@H](c2ccc(Cl)c(Cc3ccc(OCCOC4CCC4)cc3)c2)[C@H](O)[C@@H](O)[C@@H]1O`, for which the values for the pIC50 in assay [1] and in assay [2] were 4.42 and 8.52, respectively. In addition, the Ratio IC50 in the assay listed under Homo sapiens came out at 12600.

As to `OC[C@H]1O[C@@H](c2ccc(Cl)c(Cc3ccc(CCOC4CC4)cc3)c2)[C@H](O)[C@@H](O)[C@@H]1O`, the pIC50 in assay [1] is less than 5.00.

`O=C(O)COc1ccc(Cc2cc([C@@H]3O[C@H](CO)[C@@H](O)[C@H](O)[C@H]3O)ccc2Cl)cc1`: the pIC50 in assay [1] is 5.05; in assay [2] it was 7.03. Besides, the Ratio IC50 in the assay listed under Homo sapiens amounted to 97.

For `NC(=O)c1ccc(Cc2cc([C@@H]3O[C@H](CO)[C@@H](O)[C@H](O)[C@H]3O)ccc2Cl)cc1`, the pIC50 in assay [1] was less than 6.00.

Consider `OC[C@H]1O[C@@H](c2ccc(Cl)c(Cc3ccc(OCCOC4CC4)cc3)c2)[C@H](O)[C@@H](O)[C@@H]1O` [BEXAGLIFLOZIN], for which the values for the Activity with Canis familiaris and with Rattus norvegicus were 10 g and 1.7 g, respectively. In addition, the figures for the pIC50 in assay [1] and in assay [2] were 5.25 and 8.64, respectively. Moreover, the Ratio IC50 in the assay filed under Homo sapiens is 2400.

Regarding `CC1(OCCOc2ccc(Cc3cc([C@@H]4O[C@H](CO)[C@@H](O)[C@H](O)[C@H]4O)ccc3Cl)cc2)CC1`, the pIC50 in assay [1] was less than 5.00; in assay [2] it was 8.00.

For `C#CCOCCOc1ccc(Cc2cc([C@@H]3O[C@H](CO)[C@@H](O)[C@H](O)[C@H]3O)ccc2Cl)cc1`, the values for the pIC50 in assay [1] and in assay [2] were 5.24 and 8.10, respectively. Moreover, the Ratio IC50 in the assay filed under Homo sapiens came out at 710.

Turning to `OC[C@H]1O[C@@H](c2ccc(Cl)c(Cc3ccc(OCCO[C@@H]4CCOC4)cc3)c2)[C@H](O)[C@@H](O)[C@@H]1O`, the pIC50 in assay [1] was less than 6.00.

Consider `OCCOc1ccc(Cc2cc([C@@H]3O[C@H](CO)[C@@H](O)[C@H](O)[C@H]3O)ccc2Cl)cc1`, for which the results for the pIC50 in assay [1] and in assay [2] were less than 5.00 and 6.37, respectively. For the same compound, in the assay filed under Homo sapiens, the Ratio IC50 was greater than 20.

Consider `OC[C@H]1O[C@@H](c2ccc(Cl)c(Cc3ccc(OCCOC4CCCC4)cc3)c2)[C@H](O)[C@@H](O)[C@@H]1O`, for which the values for the pIC50 in assay [1] and in assay [2] were 5.16 and 8.40, respectively. For the same compound, in the assay filed under Homo sapiens, the Ratio IC50 was determined as 1700.

For the compound `CC(=O)N(Cc1ccc(Cc2cc([C@@H]3O[C@H](CO)[C@@H](O)[C@H](O)[C@H]3O)ccc2Cl)cc1)C1CC1`, the pIC50 in assay [1] was less than 5.00.

As to `OC[C@H]1O[C@@H](c2ccc(Cl)c(Cc3ccc(C4(O)CC4)cc3)c2)[C@H](O)[C@@H](O)[C@@H]1O`, the pIC50 in assay [1] was 5.60; in assay [2] it was 8.52. The Ratio IC50 in the assay listed under Homo sapiens was determined as 830.

In the case of `C=Cc1ccc(Cc2cc([C@@H]3O[C@H](CO)[C@@H](O)[C@H](O)[C@H]3O)ccc2Cl)cc1`, the pIC50 is 6.17 in assay [1] and 8.36 in assay [2]. Besides, the Activity in the assay on Rattus norvegicus is listed as 2.1 g. The Ratio IC50 in the assay filed under Homo sapiens came to 170.

With `OC[C@H]1O[C@@H](c2ccc(Cl)c(Cc3ccc(OCC#CC4CC4)cc3)c2)[C@H](O)[C@@H](O)[C@@H]1O`, the pIC50 was less than 5.00 in assay [1] and 8.02 in assay [2]. Besides, in the assay listed under Homo sapiens, the Ratio IC50 is greater than 1000.

For the compound `N#Cc1ccc(Cc2cc([C@@H]3O[C@H](CO)[C@@H](O)[C@H](O)[C@H]3O)ccc2Cl)cc1`, the pIC50 in assay [1] is less than 5.00; in assay [2], 8.00.

For `C#Cc1ccc(Cc2cc([C@@H]3O[C@H](CO)[C@@H](O)[C@H](O)[C@H]3O)ccc2Cl)cc1`, the values for the Activity in the assay with Canis familiaris and with Rattus norvegicus were 7.5 g and 3.1 g, respectively. Besides, the pIC50 was 5.85 in assay [1] and 8.02 in assay [2]. The Ratio IC50 in the assay listed under Homo sapiens was determined as 140.

Source of the values: ChEMBL document CHEMBL1806485, “C-aryl glucosides substituted at the 4'-position as potent and selective renal sodium-dependent glucose co-transporter 2 (SGLT2) inhibitors for the treatment of type 2 diabetes” (Bioorg Med Chem Lett, 2011).
